How the values were obtained:
conscious dogs = settings: cited from earlier work
hepatocytes = settings: cited from earlier work
db/db and ob/ob mice = db/db and ob/ob mice following treatment; cited from earlier work
[1] = target: T1, Human recombinant liver glycogen phosphorylase a (hrl GPα) (Homo sapiens, UniProt P06737); experiment: glycogen phosphorylase inhibition, multienzyme coupled assay (glucose-1-phosphate production from glycogen); format: biochemical; settings: hrl GPα 20 nM, 6 hours at 30° C.
T1 sequence (P06737 1-847): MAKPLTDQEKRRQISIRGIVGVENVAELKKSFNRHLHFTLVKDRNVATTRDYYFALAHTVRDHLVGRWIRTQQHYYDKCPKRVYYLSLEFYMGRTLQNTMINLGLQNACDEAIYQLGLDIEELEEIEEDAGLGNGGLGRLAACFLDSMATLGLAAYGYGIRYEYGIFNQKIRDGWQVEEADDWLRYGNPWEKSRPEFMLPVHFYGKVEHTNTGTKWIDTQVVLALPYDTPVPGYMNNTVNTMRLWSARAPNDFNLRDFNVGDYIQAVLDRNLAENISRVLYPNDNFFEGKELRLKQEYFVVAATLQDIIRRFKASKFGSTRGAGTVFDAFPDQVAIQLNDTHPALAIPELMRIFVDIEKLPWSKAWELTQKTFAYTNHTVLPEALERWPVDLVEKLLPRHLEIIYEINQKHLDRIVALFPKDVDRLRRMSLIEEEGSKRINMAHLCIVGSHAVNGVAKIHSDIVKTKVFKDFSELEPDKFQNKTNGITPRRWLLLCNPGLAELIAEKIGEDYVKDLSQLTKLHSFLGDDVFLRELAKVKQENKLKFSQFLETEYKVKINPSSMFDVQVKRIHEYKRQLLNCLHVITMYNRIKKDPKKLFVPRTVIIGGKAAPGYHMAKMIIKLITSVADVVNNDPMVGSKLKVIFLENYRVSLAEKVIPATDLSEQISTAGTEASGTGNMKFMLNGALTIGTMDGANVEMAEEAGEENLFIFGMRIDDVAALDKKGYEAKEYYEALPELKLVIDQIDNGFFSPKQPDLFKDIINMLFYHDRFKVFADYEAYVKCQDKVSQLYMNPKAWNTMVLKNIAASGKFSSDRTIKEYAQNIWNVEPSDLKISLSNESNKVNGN
Description: The activity of the compounds is determined by measuring the inhibitory effect of the compounds on glycogen degradation, the production of glucose-1-phosphate from glycogen is monitored by the multienzyme coupled assay, as described in EP 0 846 464 A2, general method of Pesce et al (Pesce, M A, Bodourian, S H, Harris, R C, and Nicholson, J F (1977) Clinical Chemistry 23, […]). The reactions were in 384 well microplate format in a volume of 50 μl. The change in fluorescence due to the conversion of the co-factor NAD to NADH is measured at 340 nm excitation, 465 nm emission in a Tecan Ultra Multifunctional Microplate Reader. The reaction is in 50 mM HEPES, 3.5 mM KH2PO4, 2.5 mM MgCl2, 2.5 mM ethylene glycol-bis(b-aminoethyl ether) N,N,N′,N′-tetraacetic acid, 100 mM KCl, 8 mM D-(+)-glucose pH7.2, containing 0.5 mM dithiothreitol, the assay buffer solution. Human recombinant liver glycogen phosphorylase a (hrl GPα) 20 nM is pre-incubated in assay buffer solution with 6.25 mM NAD, 1.25 mg type III glycogen at 1.25 mg ml^−1 the reagent buffer, for 30 minutes. […] The non-inhibited activity of GPα is measured in the presence of 10 μl 5% DMSO in assay buffer solution and maximum inhibition measured in the presence of 5 mgs ml^−1 N-ethylmaleimide. […] Relative Fluoresence Units (RFUs) are measured at 340 nm excitation, 465 nm emission . […]

Structure (SMILES) | arterial plasma glucose following a glucagon challenge (conscious dogs) | hepatic glucose output following a glucagon challenge (conscious dogs) | glucagon stimulated glycogenolysis (hepatocytes) | glucose output (hepatocytes) | plasma glucose concentration (db/db and ob/ob mice) | IC50 [1] [µM]
CCN1C(C)=C(C(=O)OC(C)C)C(c2ccccc2Cl)C2=C1COC2=O (stereo not drawn) [Bay R3401] | reduced significantly | reduced significantly |  |  |  | 
CN(C)C(=O)[C@H](O)[C@H](Cc1ccccc1)NC(=O)c1cc2cc(Cl)ccc2[nH]1 [CP91149] |  |  | reduce | reduce | reduced, in a dose related manner | 
O=C(N[C@@H](Cc1ccc(F)cc1)C(=O)N1CCC(O)CC1)c1cc2cc(Cl)ccc2[nH]1 [CP320626] |  |  | reduce | reduce | reduced, in a dose related manner | 
O=C(N[C@@H]1Cc2ccccc2[C@H]1CO)c1cc2cc(Cl)sc2[nH]1 [Example 5, 2-Chloro-N-[(1R,2R)-1-(hydroxymethyl)-2,3-dihydro-1H-inden-2-yl]-6H-thieno[2,3-b]pyrrole-5-carboxamide] |  |  |  |  |  | 0.493
